What was measured:
[1] = target: T1, Human Neutrophil Elastase (HNE) (Homo sapiens, UniProt P08246); test: Inhibitory effects on human neutrophil elastase (HNE); assay type: biochemical; conditions: Dixon plot; substrate MeO-Suc-Ala-Ala-Pro-Val-p-nitroanilide; 0.1 M HEPES buffer pH 8.0; 37° C.
T1 sequence (P08246 30-267): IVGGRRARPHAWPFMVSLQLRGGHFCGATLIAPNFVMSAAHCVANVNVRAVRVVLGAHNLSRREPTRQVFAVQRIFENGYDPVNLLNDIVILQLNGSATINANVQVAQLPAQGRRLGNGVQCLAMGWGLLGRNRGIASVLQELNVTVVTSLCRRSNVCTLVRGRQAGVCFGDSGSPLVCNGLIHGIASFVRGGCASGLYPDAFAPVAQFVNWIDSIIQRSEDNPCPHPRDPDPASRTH
Procedure: (1) Inhibitory Effects on Human Neutrophil Elastase (HNE)
Various concentrations of test compounds or DMSO as a vehicle were added to 0.1 M HEPES buffer (pH 8.0) containing the synthetic substrate MeO-Suc-Ala-Ala-Pro-Val-p-nitroanilide (final concentration, 0.1, 0.2 or 0.4 mM), 0.5 M sodium chloride solution and 0.1% Polyethyleneglycol 6000 in a final volume of 180 μL. This mixture was pre-incubated at 37° C. for 5 minutes. Then, the reaction was started by the addition of 20 μL of each enzyme solution (final concentration, 0.2U/mL). The hydrolysis rate of substrate (mO.D./minute) was measured by continuously monitoring absorbance at 405 nm for 10 minutes at 30 seconds intervals. The Ki values were determined by Dixon plot.

[2] = system: HNE-Induced Lung Hemorrhage; test: Inhibitory effect on HNE-induced lung hemorrhage in hamsters; assay type: in vivo, male Syrian hamsters; conditions: Mesocricetus auratus, po, 1 h; administered orally one hour before intratracheal HNE (10 U/100 μL/lung); blood volume in BALF
Procedure: (2) Inhibitory Effect on HNE-Induced Lung Hemorrhage in Hamsters Test compound or vehicle solution (Polyethyleneglycol 400:ethanol:distilled water=51:16:33) was administered orally to male Syrian hamsters. One hour after administration, animals were anesthetized with sodium pentobarbital (60 mg/kg, i.p.) and their tracheae were exposed. Saline (100 μL/lung) or HNE (10 U/100 μL/lung) were instilled intratracheally. One hour after the instillation of HNE, animals were exsanguinated by cutting the abdominal aorta. The trachea was re-exposed and cannulated, then bronchoalveolar lavage fluid (BALF) was collected by infusing and withdrawing of saline (2.5 mL/animal). Erythrocytes in 0.2 mL of BALF sample were hemolyzed by adding 1.8 mL of distilled water. The lysate was centrifuged (3000 r.p.m., 4° C., 10 minutes), and absorbance of the supernatant at 412 nm was measured spectrophotometrically to calculate blood volume in BALF using a standard curve.

`COC(=O)N[C@H](C(=O)N1CCC[C@H]1C(=O)N[C@H](C(=O)c1nn(Cc2ccsc2)c(=O)o1)C(C)C)C(C)C` [Example 1, (methoxycarbonyl)-L-valyl-N-[(1S)-([3-(thiophen-3-ylmethyl)-1,3,4-oxadiazolin-2-one-5-yl]carbonyl)-2-methylpropyl]-L-prolinamide] was tested, and the Ki [1] was 4.27 nM.
`COC(=O)N[C@H](C(=O)N1CCC[C@H]1C(=O)N[C@H](C(=O)c1nn(-c2ccccc2)c(=O)o1)C(C)C)C(C)C` [Example 2, (methoxycarbonyl)-L-valyl-N-[(1S)-([3-phenyl-1,3,4-oxadiazolin-2-one-5-yl]carbonyl)-2-methylpropyl]-L-prolinamide] was tested, and the Ki [1] was 3.41 nM and the ED50 [2] was 18.6 mg/kg.

— patent US20030087831A1, “1,3,4-Oxadiazolin-2-one derivatives and drugs containing these derivatives as the active ingredient” (priority 1999, published 2003)
